Test results from article PMC8401933 (Molecules, 2021).
Entries after “also recorded” stand apart in the source; their conditions may differ.

Columns and labels:
[1] = test system: Pparg and Cebpa genes in 3T3-L1 cells; test: qRT-PCR of adipogenic genes during differentiation; type: cell-based; details: 3T3-L1 during differentiation; KD025 5 μM, CX-4945 10 μM, Y-27632 10 μM
Protocol: (§1) The preadipocyte 3T3-L1 cell line was kindly provided by Dr. Hyun-Sung Park (University of Seoul) and cultured in Dulbecco’s modified Eagle’s medium (DMEM, Sigma-Aldrich) supplied with 10% heat-inactivated newborn calf serum (Invitrogen, CA, USA), 100 units/mL penicillin, and 100 µg/mL streptomycin (Cellgro, VA, USA). The cells were maintained in an incubator at 37 °C and 5% CO2. To initiate differentiation, the cells were incubated for additional days after 100% confluence and then further incubated in a medium containing fetal bovine serum (FBS) and a differentiation cocktail (DMI, 1 μM dexamethasone, 0.5 mM 3-isobutyl-1-methylxanthine, and 5 μg/mL insulin) as previously described. In brief, at day 3, the culture medium was replaced with DMEM/10%FBS containing 5 µg/mL insulin. Then, growth medium was changed every 2 days.
Total RNA was extracted using easy-BLUE (iNtRON Biotechnology, Dajeon, Korea) in accordance with the manufacturer’s protocol. cDNA was synthesized from 2 µg of total RNA using TOPscript^TM Drymix Kit (Enzynomics, Dajeon, Korea). qRT-PCR was performed using TB Green ® Premix Ex Taq^TM II (Tli RNAse H Plus) (TaKaRa, Japan) with Applied Biosystems QuantStudio™ 1 Real-Time PCR System (Thermo Fisher Scientific, Waltham, MA, USA). Gene expression data were normalized based on the use of the same amount of total RNA samples. The relative fold change of gene expression was calculated using the ∆Ct method.

3T3-L1 cells = test: Adipocyte differentiation, Oil Red O staining; type: cell-based; details: for lipid accumulation / adipocyte differentiation (ORO staining): 3T3-L1, treated during differentiation; for lipid accumulation / adipocyte differentiation (ORO staining) / adipogenesis (ORO staining): stained at day 8; for quantity of lipid droplets (ORO staining): CX-4945 5 μM, KD025 3 μM
Protocol: as §1
Lipid droplets of cells were stained using ORO (Sigma-Aldrich, MA, USA). In brief, the cells were washed with phosphate buffered saline and incubated with 10% formalin for 5 min. The cells were then fixed with the same volume of fresh formalin for at least 1 h. Subsequently, the cells were washed with 60% isopropanol, air dried completely, and then stained with ORO working solution (1% ORO/isopropanol: distilled water = 3:2). The stained cells were washed with water four times. Cell images were taken by a microscope (Nikon Eclipse TS100-F, Japan). Then, 100% isopropanol was added and incubated for 10 min to quantify the intensity of ORO. The quantity of extracted dye was obtained by obtaining absorbance at 540 nm in the Synergy H1 hybrid reader (BioTek, VT, USA).

ROCK2 = ROCK2 (Homo sapiens, UniProt O75116); test: KINOMEscan Kd determination; details: 11-point concentrations, duplicate
ROCK2, sequence (O75116 whole entry): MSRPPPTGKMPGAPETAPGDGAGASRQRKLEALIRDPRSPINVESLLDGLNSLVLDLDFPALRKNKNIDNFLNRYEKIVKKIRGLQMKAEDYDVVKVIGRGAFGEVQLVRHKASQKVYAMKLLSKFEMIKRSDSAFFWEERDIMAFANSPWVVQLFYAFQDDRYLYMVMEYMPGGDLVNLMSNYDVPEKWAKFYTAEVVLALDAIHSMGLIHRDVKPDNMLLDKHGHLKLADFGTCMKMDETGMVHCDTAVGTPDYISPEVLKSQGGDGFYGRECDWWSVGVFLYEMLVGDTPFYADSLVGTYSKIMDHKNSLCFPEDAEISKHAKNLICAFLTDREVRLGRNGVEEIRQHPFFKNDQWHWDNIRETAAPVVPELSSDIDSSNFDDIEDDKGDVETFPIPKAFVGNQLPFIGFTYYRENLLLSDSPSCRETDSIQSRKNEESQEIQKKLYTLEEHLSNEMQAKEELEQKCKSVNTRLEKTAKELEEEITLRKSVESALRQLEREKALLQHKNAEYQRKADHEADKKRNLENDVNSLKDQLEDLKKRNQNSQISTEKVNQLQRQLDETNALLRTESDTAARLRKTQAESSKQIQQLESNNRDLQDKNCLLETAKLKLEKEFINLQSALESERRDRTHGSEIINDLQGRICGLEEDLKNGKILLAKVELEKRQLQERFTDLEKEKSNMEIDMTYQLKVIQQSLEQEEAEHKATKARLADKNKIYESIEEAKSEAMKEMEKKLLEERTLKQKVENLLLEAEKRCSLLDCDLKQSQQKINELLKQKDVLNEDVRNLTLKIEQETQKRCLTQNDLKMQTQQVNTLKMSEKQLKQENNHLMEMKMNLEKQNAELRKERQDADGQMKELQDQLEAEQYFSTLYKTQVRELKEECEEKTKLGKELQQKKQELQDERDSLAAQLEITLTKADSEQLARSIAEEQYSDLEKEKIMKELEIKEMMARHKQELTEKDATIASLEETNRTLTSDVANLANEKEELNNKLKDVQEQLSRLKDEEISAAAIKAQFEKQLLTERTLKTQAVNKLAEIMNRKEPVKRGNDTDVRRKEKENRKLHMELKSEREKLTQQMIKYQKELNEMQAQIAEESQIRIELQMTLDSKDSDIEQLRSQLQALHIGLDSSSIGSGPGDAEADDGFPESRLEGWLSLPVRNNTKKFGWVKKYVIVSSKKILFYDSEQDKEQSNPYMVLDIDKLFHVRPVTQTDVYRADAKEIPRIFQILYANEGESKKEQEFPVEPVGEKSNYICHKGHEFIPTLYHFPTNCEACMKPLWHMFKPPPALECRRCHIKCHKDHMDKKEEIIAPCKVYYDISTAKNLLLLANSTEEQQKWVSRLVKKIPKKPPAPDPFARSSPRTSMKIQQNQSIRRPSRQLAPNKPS
Protocol: Dissociation constant (Kd) was measured using KINOMEscan^TM profiling service. […] The binding activity of inhibitors was monitored by measuring remained kinase-ligand binding activity. Kd was calculated based on the nonlinear least-square fit model by using the “drm” function of drc package [54] in R software (version 3.6.1).

`O=C(O)c1ccc2c(c1)nc(Nc1cccc(Cl)c1)c1ccncc12` [CX-4945] was tested, and the “expression of Pparg and Cebpa genes” value [1] was “markedly suppressed”, the “lipid accumulation / adipocyte differentiation (ORO staining)” value (3T3-L1 cells) was “suppressed the generation of lipid droplets; also recorded: significantly reduced the amount of accumulated fat in a dose-dependent manner” and the “quantity of lipid droplets (ORO staining)” value (3T3-L1 cells; 3T3-L1, treated during the early (days 0–1) or late (days 5–8) stage) was “ineffective; also recorded: lesser effect”. For the same compound, the “quantity of lipid droplets (ORO staining)” value (3T3-L1 cells; 3T3-L1, treated during the intermediate stage (days 1–3)) was “acted specifically in the middle stage; also recorded: significantly reduced” and the Kd (ROCK2) was “no selective interaction; also recorded: did not show such cross-reactivity”.
In the case of `CN(C)c1nc2c(Br)c(Br)c(Br)c(Br)c2[nH]1` [DMAT, 2-dimethylamino-4,5,6,7-tetrabromo-1H-benzimidazole], the “adipogenesis (ORO staining)” value (3T3-L1 cells; 3T3-L1, 5 μM) is reported as “promoting reversely the differentiation”, the “adipogenesis (ORO staining)” value (3T3-L1 cells; 3T3-L1, 30 μM) is reported as “inhibited the adipogenesis” and the “lipid accumulation / adipocyte differentiation (ORO staining)” value (3T3-L1 cells) is reported as “inhibited effectively”.
For `C[C@@H](N)[C@H]1CC[C@H](C(=O)Nc2ccncc2)CC1` [Y-27632], the “expression of Pparg and Cebpa genes” value [1] was “increased; also recorded: did not suppress”.
`O=S(=O)(c1cccc2cnccc12)N1CCCNCC1` [fasudil] was tested, and the “lipid accumulation / adipocyte differentiation (ORO staining)” value (3T3-L1 cells) was “does not” and the “lipid accumulation / adipocyte differentiation (ORO staining)” value (3T3-L1 cells; listed as Fasudil) was “no significant effect”.
With `O=C1c2ccc(O)c(O)c2C(=O)c2c(O)ccc(O)c21` [quinalizarin, 1,2,5,8-tetrahydroxyanthraquinone] the “adipogenesis (ORO staining)” value (3T3-L1 cells; 3T3-L1, 5, 10, and 30 μM) was “suppressed adipogenesis” and the “lipid accumulation / adipocyte differentiation (ORO staining)” value (3T3-L1 cells) was “inhibited effectively”.
